The test system of experiment [1] is SJSA-1 xenograft model. To be noted: cited from earlier work; for tumor growth in SJSA-1 xenograft model: high oral doses (200–300 mg/kg) ref 8, 21.
The test system of experiment [2] is p53 activation in SJSA-1 osteosarcoma cell line. As to the kind of experiment: Western blot analysis of p53 activation and PARP cleavage in SJSA-1 cells. The format is cell-based, human. To be noted: for full-length PARP (apoptosis induction) / p53 activation (accumulation of p53, MDM2 and p21): 24 h. For orientation: A western blot detects proteins with antibodies after separation by electrophoresis.

Experiment [3] concerns p53 activation and apoptosis in SJSA-1 xenograft tumor tissues. As to the kind of experiment: Pharmacodynamics study in SJSA-1 xenograft tumor tissues.
Setting [4] is: single oral dose 100 mg/kg, 24 h.

As to `CC(C)(C)C[C@H]1N[C@@H](C(=O)NCC[C@H](O)CO)[C@H](c2cccc(Cl)c2)[C@@]12C(=O)Nc1cc(Cl)c(F)cc12` [Compound 1], in experiment [1], the complete tumor regression entry is on record as “failed to achieve complete tumor regression” and the “tumor growth in SJSA-1 xenograft model” value is listed as “inhibited tumor growth”.
For the molecule `CC(C)(C)C[C@@H]1N[C@@H](C(=O)NCC[C@H](O)CO)[C@H](c2cccc(Cl)c2F)[C@]12C(=O)Nc1cc(Cl)ccc12` [Compound 2], in experiment [2] (Western blot), the “full-length PARP (apoptosis induction)” value was “dose-dependently diminished”; the “p53 activation (accumulation of p53, MDM2 and p21)” value was “effectively and dose-dependently activate p53”. Also, in experiment [1], the complete tumor regression result was “failed to achieve complete tumor regression” and the “tumor growth in SJSA-1 xenograft model” value is “inhibited tumor growth”.
`CC(C)(C)C[C@@H]1N[C@@H](C(=O)N[C@H]2C[C@@](C)(O)C2)[C@H](c2cccc(Cl)c2F)[C@]12C(=O)Nc1cc(Cl)ccc12` [Compound 9]: in experiment [2], the “times more potent than 2 in p53 activation” value is given as “at least 3 times” and the “times more potent than Nutlin-3a in p53 activation” value amounted to 10 times. In addition, in experiment [2] (Western blot), the “full-length PARP (apoptosis induction)” value is listed as “dose-dependently diminished”; the “p53 activation (accumulation of p53, MDM2 and p21)” value is “effectively and dose-dependently activate p53”; the “lowest concentration activating p53 (clear accumulation of p21 and p53)” value is listed as 30 nM. Also, the “cleavage of PARP and caspase-3 in tumor tissue” value in experiment [3] (single oral dose 100 mg/kg, 1, 3 and 6 h) is listed as “minimal”. Also, the “p53, p21 and MDM2 protein levels in tumor tissue” value in experiment [3] (single oral dose 100 mg/kg, 3 h and 6 h) was “robust upregulation”. Besides, in experiment [3] (setting [4]), the “cleavage of PARP and caspase-3 in tumor tissue” value is “very clear”; the “p53, p21 and MDM2 protein levels in tumor tissue” value was “significantly diminished”.
For `COc1ccc(C2=N[C@@H](c3ccc(Cl)cc3)[C@@H](c3ccc(Cl)cc3)N2C(=O)N2CCNC(=O)C2)c(OC(C)C)c1` [Nutlin-3a, reference compound], in experiment [2] (Western blot), the “full-length PARP (apoptosis induction)” value was “dose-dependently diminished”; the “p53 activation (accumulation of p53, MDM2 and p21)” value was “effectively and dose-dependently activate p53”.
